The text below walks through data of ChEMBL document CHEMBL1909046, “DrugMatrix in vitro pharmacology data”.

For assay [1], the target named is T1, Angiotensin-converting enzyme (Oryctolagus cuniculus, UniProt P12822).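 Also: enzymatic inhibition of angiotensin-converting enzyme measured with FAPGG as the substrate; in other assays of this panel Not Active means under 50% inhibition at 10 µM.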
T1 sequence (P12822 whole entry): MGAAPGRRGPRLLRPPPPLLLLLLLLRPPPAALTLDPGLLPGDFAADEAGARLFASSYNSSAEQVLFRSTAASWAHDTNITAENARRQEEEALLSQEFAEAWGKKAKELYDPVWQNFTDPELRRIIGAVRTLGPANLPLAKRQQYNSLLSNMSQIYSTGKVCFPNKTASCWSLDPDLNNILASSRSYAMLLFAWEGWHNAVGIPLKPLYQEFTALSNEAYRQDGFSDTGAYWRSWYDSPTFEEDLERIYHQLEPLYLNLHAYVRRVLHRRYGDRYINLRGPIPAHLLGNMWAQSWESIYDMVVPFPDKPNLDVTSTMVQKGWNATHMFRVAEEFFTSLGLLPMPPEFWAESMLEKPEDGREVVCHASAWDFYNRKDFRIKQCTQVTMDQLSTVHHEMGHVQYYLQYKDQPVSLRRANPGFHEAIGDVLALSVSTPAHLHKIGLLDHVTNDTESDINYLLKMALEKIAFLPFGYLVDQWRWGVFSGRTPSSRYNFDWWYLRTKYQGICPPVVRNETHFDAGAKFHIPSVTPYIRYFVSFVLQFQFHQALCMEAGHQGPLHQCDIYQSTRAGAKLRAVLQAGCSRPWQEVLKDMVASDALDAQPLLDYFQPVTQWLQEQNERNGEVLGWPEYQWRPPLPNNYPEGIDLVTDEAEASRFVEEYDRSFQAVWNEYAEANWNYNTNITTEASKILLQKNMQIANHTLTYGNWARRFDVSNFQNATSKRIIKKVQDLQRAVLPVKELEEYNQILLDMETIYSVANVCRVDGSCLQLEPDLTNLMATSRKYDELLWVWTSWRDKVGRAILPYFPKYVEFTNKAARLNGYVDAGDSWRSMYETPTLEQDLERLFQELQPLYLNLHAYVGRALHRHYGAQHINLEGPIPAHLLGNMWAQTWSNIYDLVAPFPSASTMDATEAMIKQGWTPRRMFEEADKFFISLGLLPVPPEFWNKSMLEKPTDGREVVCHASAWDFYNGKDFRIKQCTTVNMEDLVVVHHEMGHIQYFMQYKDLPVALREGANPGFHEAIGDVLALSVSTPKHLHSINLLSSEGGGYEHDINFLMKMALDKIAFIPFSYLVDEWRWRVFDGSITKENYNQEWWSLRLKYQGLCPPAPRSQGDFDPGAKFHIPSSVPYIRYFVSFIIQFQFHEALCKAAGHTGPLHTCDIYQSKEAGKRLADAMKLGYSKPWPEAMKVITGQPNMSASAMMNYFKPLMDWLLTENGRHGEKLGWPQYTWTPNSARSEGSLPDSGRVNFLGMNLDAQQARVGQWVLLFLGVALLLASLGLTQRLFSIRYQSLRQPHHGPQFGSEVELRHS
It counts as tissue-based, Lung.

Another assay deals with D(1A) dopamine receptor (Homo sapiens, UniProt P21728). In words: DRUGMATRIX: Dopamine D1 radioligand binding (ligand: [3H] SCH-23390). To be noted: Not Active = under 50% inhibition at 10 µM. It is filed as cell membranes, CHO, Membrane.
For assay [2], the target named is 5-hydroxytryptamine receptor 6 (Homo sapiens, UniProt P50406). It counts as cell membranes, HeLa, Membrane. To be noted: hela. Also: in other assays of this panel Not Active means under 50% inhibition at 10 µM.
Assay [3] addresses T2, Cysteinyl leukotriene receptor 1 (Homo sapiens, UniProt Q9Y271).
T2 sequence (Q9Y271 whole entry): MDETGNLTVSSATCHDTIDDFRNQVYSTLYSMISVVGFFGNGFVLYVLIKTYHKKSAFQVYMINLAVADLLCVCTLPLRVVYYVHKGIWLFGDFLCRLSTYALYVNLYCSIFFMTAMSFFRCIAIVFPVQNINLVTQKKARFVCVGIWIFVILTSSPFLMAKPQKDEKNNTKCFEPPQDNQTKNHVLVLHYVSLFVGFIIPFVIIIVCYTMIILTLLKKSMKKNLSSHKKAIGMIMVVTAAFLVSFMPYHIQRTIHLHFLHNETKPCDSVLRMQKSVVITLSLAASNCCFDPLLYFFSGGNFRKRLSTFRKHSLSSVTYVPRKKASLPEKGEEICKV
It is filed as cell membranes, CHO-K1, Membrane.

Assay [4] in a line: DRUGMATRIX: Phorbol Ester radioligand binding (ligand: [3H] PDBu). It is filed as cell membranes, Mus musculus, ICR, Brain, Membrane. The settings on record: Not Active = under 50% inhibition at 10 µM.
Assay [5] deals with T3, Muscarinic acetylcholine receptor M4 (Homo sapiens, UniProt P08173).
T3 sequence (P08173 whole entry): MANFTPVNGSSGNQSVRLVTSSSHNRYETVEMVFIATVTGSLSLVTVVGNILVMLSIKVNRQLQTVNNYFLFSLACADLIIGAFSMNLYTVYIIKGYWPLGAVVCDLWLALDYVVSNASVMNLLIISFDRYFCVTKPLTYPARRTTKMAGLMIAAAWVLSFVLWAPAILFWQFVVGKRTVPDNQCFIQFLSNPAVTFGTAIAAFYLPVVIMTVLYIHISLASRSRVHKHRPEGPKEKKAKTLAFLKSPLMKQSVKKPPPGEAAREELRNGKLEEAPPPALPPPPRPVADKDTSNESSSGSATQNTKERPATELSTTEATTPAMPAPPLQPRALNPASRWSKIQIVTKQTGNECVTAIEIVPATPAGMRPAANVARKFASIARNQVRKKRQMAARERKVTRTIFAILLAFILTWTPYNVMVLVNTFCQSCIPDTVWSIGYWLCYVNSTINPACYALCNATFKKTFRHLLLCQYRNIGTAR
It is filed as cell membranes, CHO-K1, Membrane. To be noted: cho-k1.

5-hydroxytryptamine receptor 6, sequence (P50406 whole entry): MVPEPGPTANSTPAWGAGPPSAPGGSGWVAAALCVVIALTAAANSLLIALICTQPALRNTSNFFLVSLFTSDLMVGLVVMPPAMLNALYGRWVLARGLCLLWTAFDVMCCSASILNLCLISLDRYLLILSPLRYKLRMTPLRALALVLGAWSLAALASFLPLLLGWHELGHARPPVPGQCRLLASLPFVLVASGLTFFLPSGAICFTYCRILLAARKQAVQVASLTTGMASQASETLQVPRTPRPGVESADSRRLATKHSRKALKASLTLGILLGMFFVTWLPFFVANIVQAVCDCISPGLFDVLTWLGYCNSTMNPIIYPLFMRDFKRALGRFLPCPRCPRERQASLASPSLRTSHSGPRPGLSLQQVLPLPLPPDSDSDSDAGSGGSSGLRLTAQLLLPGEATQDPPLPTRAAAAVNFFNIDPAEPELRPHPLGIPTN
D(1A) dopamine receptor, sequence (P21728 whole entry): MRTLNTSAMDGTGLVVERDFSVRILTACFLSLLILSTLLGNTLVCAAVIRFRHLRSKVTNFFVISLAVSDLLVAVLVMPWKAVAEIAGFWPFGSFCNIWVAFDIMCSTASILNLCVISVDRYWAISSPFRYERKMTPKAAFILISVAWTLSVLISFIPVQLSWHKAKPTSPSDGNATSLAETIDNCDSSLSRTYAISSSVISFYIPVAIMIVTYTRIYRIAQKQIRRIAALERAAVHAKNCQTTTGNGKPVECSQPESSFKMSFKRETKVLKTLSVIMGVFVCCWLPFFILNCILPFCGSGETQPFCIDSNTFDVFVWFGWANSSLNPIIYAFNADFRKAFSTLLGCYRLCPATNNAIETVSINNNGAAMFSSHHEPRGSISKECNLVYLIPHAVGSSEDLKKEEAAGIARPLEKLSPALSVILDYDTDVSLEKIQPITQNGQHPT

In general, IC50 refers to the concentration that gives 50% inhibition. Usually Ki stands for a measure of affinity in units of concentration, obtained from inhibition or displacement. `N#CC(C#N)=Cc1ccc(O)c(O)c1` [TYRPHOSTIN 23]: the 50% inhibitory concentration (IC50) result (in assay [1]; on D(1A) dopamine receptor (cho); in assay [2]; in assay [3] (cho-k1); in assay [4]; in assay [5]) was “Not Active” throughout. Further, the Ki result in assay [4] is listed as “Not Active”.
As to `C=CCC1(C(C)CCC)C(=O)NC(=O)NC1=O` (stereo unspecified) [SECOBARBITAL], the IC50 result (in assay [1]; on D(1A) dopamine receptor (cho); in assay [2]; in assay [3] (cho-k1); in assay [4]; in assay [5]) was “Not Active” throughout. For the same compound, the inhibition constant (Ki) entry in assay [4] is on record as “Not Active”.
Consider `OCCN(CCO)c1nc(N2CCCCC2)c2nc(N(CCO)CCO)nc(N3CCCCC3)c2n1` [DIPYRIDAMOLE], for which the 50% inhibitory concentration (IC50) result (in assay [1]; on D(1A) dopamine receptor (cho); in assay [2]; in assay [3] (cho-k1); in assay [4]; in assay [5]) was “Not Active” each time. The inhibition constant Ki result in assay [4] was “Not Active”.
For the compound `Nc1c2c(nc3ccccc13)CCCC2` [TACRINE], the 50% inhibitory concentration (IC50) entry (in assay [1]; at D(1A) dopamine receptor (cho); in assay [2]; in assay [3] (cho-k1); in assay [4]; in assay [5]) was “Not Active” each time. Moreover, in assay [4], the Ki result is recorded as “Not Active”.
On to `Cn1ccnc1S` [METHIMAZOLE], for which the half-maximal inhibitory concentration (IC50) result (in assay [1]; at D(1A) dopamine receptor (cho); in assay [2]; in assay [3] (cho-k1); in assay [4]; in assay [5]) was “Not Active” in each case. For the same compound, the Ki entry in assay [4] is listed as “Not Active”.
Turning to `N[C@@H]1[C@H]2CN(c3nc4c(cc3F)c(=O)c(C(=O)O)cn4-c3ccc(F)cc3F)C[C@@H]12` [TROVAFLOXACIN], the concentration for half-maximal inhibition (IC50) result (in assay [1]; on D(1A) dopamine receptor (cho); in assay [2]; in assay [3] (cho-k1); in assay [4]; in assay [5]) was “Not Active” throughout. Moreover, the inhibition constant Ki entry in assay [4] is on record as “Not Active”.
Take `CC1(C)O[C@@H]2C[C@H]3[C@@H]4CCC5=CC(=O)C=C[C@]5(C)[C@@]4(F)[C@@H](O)C[C@]3(C)[C@]2(C(=O)CO)O1` [TRIAMCINOLONE ACETONIDE]: the half-maximal inhibitory concentration (IC50) result (in assay [1]; at D(1A) dopamine receptor (cho); in assay [2]; in assay [3] (cho-k1); in assay [4]; in assay [5]) was “Not Active” each time. For the same compound, the Ki result in assay [4] was “Not Active”.
Consider `NC[C@H]1CC[C@H](C(=O)O)CC1` [TRANEXAMIC ACID], for which the 50% inhibitory concentration (IC50) entry (in assay [1]; on D(1A) dopamine receptor (cho); in assay [2]; in assay [3] (cho-k1); in assay [4]; in assay [5]) was “Not Active” in each case. Moreover, the Ki entry in assay [4] is “Not Active”.
`COc1c(C)c2c(c(O)c1C/C=C(\C)CCC(=O)O)C(=O)OC2` [MYCOPHENOLIC ACID]: the IC50 result (in assay [1]; on D(1A) dopamine receptor (cho); in assay [2]; in assay [3] (cho-k1); in assay [4]; in assay [5]) was “Not Active” each time. Also, the inhibitory constant (Ki) result in assay [4] was “Not Active”.
As for `N[C@@H](Cc1ccc(N(CCCl)CCCl)cc1)C(=O)O`, the 50% inhibitory concentration (IC50) result (in assay [1]; at D(1A) dopamine receptor (cho); in assay [2]; in assay [3] (cho-k1); in assay [4]; in assay [5]) was “Not Active” each time. The inhibition constant Ki entry in assay [4] was “Not Active”.
Take `CO[C@H]1/C=C/O[C@@]2(C)Oc3c(C)c(O)c4c(O)c(c(/C=N/N5CCN(C)CC5)c(O)c4c3C2=O)NC(=O)/C(C)=C\C=C\[C@H](C)[C@H](O)[C@@H](C)[C@@H](O)[C@@H](C)[C@H](OC(C)=O)[C@@H]1C` [RIFAMPIN]: the IC50 result (in assay [1]; on D(1A) dopamine receptor (cho); in assay [2]; in assay [3] (cho-k1); in assay [4]; in assay [5]) was “Not Active” throughout. Also, the Ki entry in assay [4] is recorded as “Not Active”.
As for `O=NN(CCCl)C(=O)NC1CCCCC1` [LOMUSTINE], the IC50 entry (in assay [1]; on D(1A) dopamine receptor (cho); in assay [2]; in assay [3] (cho-k1); in assay [4]; in assay [5]) was “Not Active” throughout. Moreover, the Ki entry in assay [4] is on record as “Not Active”.
Turning to `CSc1ccc(/C=C2/C(C)=C(CC(=O)O)c3cc(F)ccc32)cc1` [SULINDAC SULFIDE], the IC50 result in assay [1] is “Not Active”; on D(1A) dopamine receptor (read-out: IC50) it was 27.8 µM; in assay [2] it was “Not Active”; in assay [3] (read-out: IC50), 29.4 µM; in assay [4] it was “Not Active”; in assay [5], “Not Active”. In addition, the values for the Ki (at D(1A) dopamine receptor (read-out: Ki); in assay [3] (read-out: Ki); in assay [4]) were 13.9 µM, 14.7 µM and “Not Active”, respectively.
For `Nc1nc2ccc(OC(F)(F)F)cc2s1` [RILUZOLE], the half-inhibitory concentration (IC50) result (in assay [1]; at D(1A) dopamine receptor (cho); in assay [2]; in assay [3] (cho-k1); in assay [4]; in assay [5]) was “Not Active” throughout. In addition, in assay [4], the inhibition constant (Ki) result is recorded as “Not Active”.
With SODIUM NITROPRUSSIDE, the IC50 entry (in assay [1]; at D(1A) dopamine receptor (cho); in assay [2]; in assay [3] (cho-k1); in assay [4]; in assay [5]) was “Not Active” in each case. Besides, the Ki entry (in assay [1]; on D(1A) dopamine receptor (cho); in assay [2]; in assay [3] (cho-k1); in assay [4]; in assay [5]) was “Not Active” each time.
On to `Cc1noc(NS(=O)(=O)c2ccc(N)cc2)c1C` [SULFISOXAZOLE], for which the half-inhibitory concentration (IC50) result (in assay [1]; at D(1A) dopamine receptor (cho); in assay [2]; in assay [3] (cho-k1); in assay [4]; in assay [5]) was “Not Active” each time. In addition, in assay [4], the Ki result is reported as “Not Active”.
`Cc1cccc(N(C)C(=S)Oc2ccc3ccccc3c2)c1` [TOLNAFTATE]: the IC50 result (in assay [1]; on D(1A) dopamine receptor (cho); in assay [2]; in assay [3] (cho-k1); in assay [4]; in assay [5]) was “Not Active” in each case. Moreover, the Ki entry in assay [4] is “Not Active”.
